The text below walks through data of patent publication US6685968B1, “Boric acid sapstain control method” (priority 2003, dated 2004).

The experiment deals with sapstain. The settings on record: fresh cut hackberry lumber dipped in aqueous solutions (1,3,5,7 and 10% boric acid; DOT at the same level of boric oxide); stacked for air drying; examined after six months of seasoning and planing. As for the experimental part: Aqueous solutions containing 1,3,5,7, and 10% boric acid according to my preferred embodiment were prepared and used to treat fresh cut hackberry lumber by dipping. Aqueous disodium octaborate tetrahydrate solutions containing the same level of boric oxide were prepared and used in the same manner. This treated lumber, and untreated controls, was stacked in accordance with standard sawmill air drying practice. After six months of seasoning the lumber was planed, and examined for sapstain control.

As to `OB(O)O` [boric acid], the sapstain control entry is “superior sapstain control compared to the DOT concentrations”.

For the compound `O.O.O.O.O=BOB1OB(OB=O)OB2OB([O-])OB([O-])OB(O1)O2.[Na+].[Na+]` [DOT, disodium octaborate tetrahydrate], the sapstain control entry is given as “superior to the untreated controls”.
